Measurements: US20140314791A1, “METHODS OF TREATING CANCER” (DANA-FARBER CANCER INSTITUTE, INC., priority 2012, published 2014)

Assays:
[1] = system: dTMP and dTDP levels in Lkb1-wt 634 and Lkb1-null t4 cells; test: Metabolite analysis of dTMP and dTDP after Dtymk knockdown; assay type: cell-based, mouse; conditions: 3 days
Procedure: (A) Graph of dTMP and dTDP levels in Lkb1-wt 634, Lkb1-null t4, and human LKB1-deficient NSCLC A549 cells transduced with the indicated shRNA for 3 days. The data represent mean±SD for 6 replicates.
Cells were plated into 6-well plates in RPMI 1640/10% dialyzed FBS/1% pen/strep and medium was changed daily. When the cells reached 80% confluence, they were washed 3 times with warm washing buffer (75 mM ammonium carbonate, pH7.4), and plates were then immediately placed on dry ice. 500 μl of extraction buffer (80% methanol, −80° C.) was added to each well and the plates were kept on dry ice for 15 min. The supernatants were collected into 1.5 ml eppendorf tubes, and another 500 μl of cold extraction buffer was added to each well. After 15 min incubation on dry ice, the supernatant and the cells were collected and pooled with the previously collected supernatant. The tubes were spun at 3750 rpm/4° C. for 30 min, and then supernatants were transferred into fresh tubes and saved at −80° C. All reactions were performed with 5 replicates.
Prior to mass spectrometer injection, dried extracts were reconstituted in LCMS grade water. Non-targeted, flow-injection time-of-flight mass spectrometry was performed as described (Fuhrer et al., 2011). […] Mass spectra were recorded from m/z 50 to 1000 with a frequency of 1.4 spectra/s for 0.48 min using the highest resolving power (4 GHz HiRes). […]

[2] = system: Lkb1-wt (634, 855, and 857) and Lkb1-null (t2, t4, and t5) cells; test: Proliferation assay of shRNA-transduced cells (CellTiter-Glo); assay type: cell-based, mouse; conditions: in vitro, puromycin 3 μg/ml
Procedure: Viable cells were measured daily using Promega's CellTiter-Glo Assay. Two independent sets of transductions into the 6 cell lines were shown: the first set used shGFP, shDtymk-1, and shChek1-4 (upper panels), and the second set used shGFP, shDtymk-3, and shChek1-1 (lower panels).
Lentiviral production and target cell transduction were performed according to previously description (Moffat et al., 2006). Briefly, 293T cells were co-transfected with pLenti-vector, pCMV-dR8.74psPAX2, and pMD2.G using TransIT-LT1 transfection reagent (Mirus). Thirty-six h after transfection, the supernatant was harvested and spun at 3000 rpm/4° C. for 10 min, and then incubated with target cells in the presence of 8 μg/ml polybrene (Sigma) for 24 h. Two days after infection, the cells were collected for further analysis as indicated in the presence of 3 μg/ml Puromycin (Invitrogen).
Cells were plated into 96-well plates at 2000 cells per well in 100 μl, with addition of puromycin at 3 μg/ml for shRNA lentivirus infected cells, or with addition of variable doses of drug for drug treatment effects. Viable cells were measured daily or for a period of up to 3 days either by CellTiter-Glo Luminescent Cell Viability Assay (Promega) or by Cell Counting Kit-8 (CCK-8) (Dojindo) according to the manufacturer's instructions. All proliferation assays were performed in triplicate wells.
Depletion of DTYMK and CHEK1 was confirmed by Western blot (FIG. 11B).

Lkb1-null cells = test: Array-based viral infection and cell proliferation assay (validation), Lkb1-null; set-up: species or system mouse
Procedure: (C) Validation study. Relative viability of Lkb1-wt and Lkb1-null cells infected with 340 individual hairpins for 5 days. Genes of interest are highlighted by the colors indicated.
For array-based viral infection and assessment of proliferation, 2.5 μl virus was mixed with 250 cells in 100 μl medium containing 8 μg/ml polybrene per well in 96-well plates. The plates were spun at 2250 rpm/37° C. for 30 min. Immediately after spinning, supernatants were gently aspirated off and 100 μl fresh medium was added to each well of the 96-well plates. After 2 days incubation, medium was gently aspirated off and 100 fresh medium containing 3 μg/ml puromycin was added to each well of the 96-well plates. The plates were back to culture for additional 3 days and then the viable cells were monitored by alamarBlue (Invitrogen) assay according to manufacturer's instructions.
To identify Lkb1-null-selective essential genes, a synthetic lethal screen was performed using a pooled 40K murine shRNA lentiviral library for each of the Lkb1-wt and Lkb1-null cell lines described above. Relative abundance of shRNAs in each cell line sample was determined by deep-sequencing analysis, and for every shRNA, a log 2 Fold Change (log 2FC) value was calculated from the difference in relative abundance at a late time point after infection versus the initial shRNA-infected sample. An unsupervised hierarchical clustering analysis of the ranked hairpins from the triplicate pooled shRNA library screens of Lkb1-wt and Lkb1-null mouse cancer cells is shown in FIG. 1A. […] The ranked hairpins were collapsed by using two methods, a RIGER analysis (KS t-test based statistics) and a weighted second best analysis to rank genes that selectively impaired proliferation/viability in Lkb1-null cells. A union of 344 genes, identified by the top 100 individual hairpins for 88 genes (Table 1) and the top 200 genes from both the KS (Table 2) and weighted second best (Table 3), was nominated as the initial prioritized list (FIG. 1B). 340 shRNAs, targeting 70 candidate genes from this prioritized list, were chosen for validation (Table 4). The 70 genes consisted of the top 10 candidates from the KS analysis, as well as 60 others involved in a range of biological processes in an attempt to represent all biological categories in the validation process. Validation was performed in an array format with an assay of relatively short duration (5 days post infection) compared to the primary pooled screen (28 days), which should be a more stringent selection, as it required the anti-proliferative effects to manifest in a short time period. […] Dtymk, Check1, and Pdhb are the top 3 candidate genes, each with 3 hairpins that scored in the validation assay (FIG. 1C).

[3] = system: Lkb1-null versus Lkb1-wt cell lines; test: Large-scale pooled shRNA library screening (murine 40K pool); assay type: cell-based, mouse

shDtymk-1: shRNA hairpin CAAGCTTCTGAATTCCTACTT targeting Mouse Dtymk
dTDP level [1]: moderate decrease | dTMP level [1]: significant increase | cell growth compared to shGFP control, Lkb1-null versus Lkb1-wt [2]: inhibition was stronger in Lkb1-null cells | Growth of Lkb1-wt/Lkb1-null in array-based validation (Lkb1-null cells; Table 6): 4.16 | Null ave-GR (Lkb1-null cells; validation, 5 days post infection, alamarBlue): 0.13 | Hairpin-rank in pooled shRNA screen ([3]; Table 6): 27050 | NES ([3]; gene-level normalized enrichment score over all hairpins of the gene): 1.540 | Gene rank ([3]; gene-level rank by NES): 91 | # HP 500 ([3]; number of the gene's hairpins ranked within top 500): 1 | # HP 1000 ([3]; number of the gene's hairpins ranked within top 1000): 1 | # HP 5000 ([3]; number of the gene's hairpins ranked within top 5000): 1 | # HP 10000 ([3]; number of the gene's hairpins ranked within top 10000): 2
